Test results from patent publication US9216247B2, “Buffered compositions for dialysis” (Advanced Renal Technologies, priority 1998, dated 2015).
Like-named read-outs stand apart in the source and are kept apart here.

What was measured:
[1] = tested on: coagulation behavior of blood; assay: clotting time of patients dialysed with citric acid dialysate; format: in vivo; details: 2.4 mEq/L of citric acid in dialysate; beyond that achieved with heparin

| increase in patient's clotting time [1] | SMILES | buffering action (bicarbonate concentrate solutions of 8.1<pH<8.3) | buffering action (bicarbonate concentrate solutions with a pH of <8.0) |
| --- | --- | --- | --- |
| no measurable increase | O=C(O)CC(O)(CC(=O)O)C(=O)O [citric acid, Citric acid] | – | – |
| – | CC(=O)[O-].[Na+] [sodium acetate] | evident | not apparent |
